Assay results taken from the NIST ThermoML archive (doi:10.1021/je3011634).
± gives the expanded uncertainty stated by the source.

Settings: 101.33 kPa, Liquid; for viscosity: Capillary tube (Ostwald / Ubbelohde) method; for mass density: Vibrating tube method

SMILES	viscosity (293.15 K) [mPa·s]	mass density (293.15 K) [kg/m3]	viscosity (303.15 K) [mPa·s]	mass density (303.15 K) [kg/m3]	viscosity (313.15 K) [mPa·s]	mass density (313.15 K) [kg/m3]	viscosity (323.15 K) [mPa·s]	mass density (323.15 K) [kg/m3]	viscosity (333.15 K) [mPa·s]	mass density (333.15 K) [kg/m3]
CC(C)CO [2-methyl-1-propanol]	4.087 ± 0.1	801.82 ± 0.24	2.877 ± 0.1	794.06 ± 0.24	2.091 ± 0.1	786.12 ± 0.24	1.576 ± 0.1	777.94 ± 0.24	1.125 ± 0.1	769.46 ± 0.24
NCCCO [3-amino-1-propanol]	40.46 ± 0.27	987.65 ± 0.23	23.98 ± 0.18	979.65 ± 0.23	15.31 ± 0.14	971.61 ± 0.23	10.22 ± 0.12	963.52 ± 0.23	6.962 ± 0.11	955.38 ± 0.23
CCCO [propan-1-ol]	2.204 ± 0.1	803.57 ± 0.15	1.513 ± 0.1	795.53 ± 0.15	1.018 ± 0.1	787.35 ± 0.15	0.79 ± 0.1	778.98 ± 0.15		770.38 ± 0.16
CC(C)O [propan-2-ol]	2.362 ± 0.1	785.35 ± 0.17	1.762 ± 0.1	776.86 ± 0.17	1.2 ± 0.1	768.07 ± 0.17	0.938 ± 0.1	758.89 ± 0.18	0.604 ± 0.1	749.25 ± 0.18
